Data taken from paper PMC11990924, “Inhibition of Tyrosinase and Melanogenesis by Carboxylic Acids: Mechanistic Insights and Safety Evaluation” (Molecules, 2025).

Columns and labels:
tyrosinase [1] = molecular target: T1, tyrosinase (Agaricus bisporus, UniProt C7FF04); assay: Fluorescence spectra analysis of tyrosinase; type: binding, mushroom; conditions: 6 mM; excitation 280 nm
T1 construct: purchased Sigma-Aldrich
Method: Carboxylic acid solutions at various concentrations were mixed with PBS buffer and tyrosinase (final concentration of 60 U/mL) and then transferred to a black 96-well plate. Fluorescence analysis was conducted using a microplate reader (Infinite 200Pro, Tecan).

tyrosinase [2] = molecular target: T1, tyrosinase; assay: Kinetic analysis of tyrosinase (Lineweaver–Burk); type: biochemical, mushroom; conditions: for Ki: GraphPad Prism, mixed-model or competitive model, read-out: inhibition constant (Ki); for inhibition mechanism: Lineweaver–Burk double-reciprocal plots; for inhibition constant (KIS) for enzyme–substrate complex: mixed-type inhibitors
Method: L-DOPA solutions at various concentrations (0.5, 1, 2, and 4 mM) were prepared in PBS buffer (pH 7.4) and mixed with carboxylic acids at different concentrations and tyrosinase (final concentration of 60 U/mL). […] The reaction rates were calculated based on the OD values. To analyze the inhibition types of the four carboxylic acids on tyrosinase, double-reciprocal Lineweaver–Burk plots were constructed with 1/v (reaction rate) as the y-axis and 1/[S] (substrate concentration) as the x-axis. The maximum reaction velocity (Vmax) and Michaelis constant (Km) were determined using GraphPad Prism 10 (GraphPad Software, Massachusetts, USA).

[3] = pH of carboxylic acid mixed with PBS buffer, without tyrosinase; type: physicochemical; conditions: in PBS buffer, absence of tyrosinase
[4] = L-DOPA auto-oxidation analysis; conditions: for IC50: 37 °C, 12 h, calculated using SPSS, read-out: IC50 for L-DOPA auto-oxidation inhibition
Method: A 5 mM L-DOPA solution was prepared in PBS buffer (pH 7.4). Subsequently, 240 μL of carboxylic acid solution, 360 μL of L-DOPA solution, and 120 μL of PBS buffer were sequentially mixed. The mixture was then incubated at 37 °C for 12 h. […] Deionized water was used as the control. The inhibition of L-DOPA auto-oxidation was calculated using the same method as the melanin content analysis.

[5] = Cell viability of B16-F10 by MTT; type: cell-based; conditions: mouse, B16-F10 cells, 6 mM
Method: B16-F10 cells were seeded in 96-well plates at a density of 1 × 10^5 cells/mL and cultured at 37 °C with 5% CO2 for 24 h. Subsequently, various concentrations of carboxylic acids were added, and the cells were further incubated for 24 h. Then, 6 μL of MTT (5 mg/mL) was added, and the cells were cultured for an additional 4 h. Afterward, 200 μL of DMSO was added to dissolve the formazan crystals by gently pipetting up and down. The absorbance at 570 nm (OD570) was measured using a microplate reader (Infinite 200Pro, Tecan), with deionized water serving as the control. The cell viability was calculated with Equation (2): (2) [(OD570 of sample)/OD570 of control]×100%

B16-F10 cells = assay: Melanin content analysis of B16-F10 cells (α-MSH stimulated); type: cell-based; conditions: Mus musculus; 6 mM, B16-F10, α-MSH 1 μM, 48 h; read-out: melanin inhibition rate
Method: A 900 μL cell suspension with an approximate density of 50% confluence was seeded into a 12-well plate and cultured for 24 h at 37 °C with 5% CO2. Subsequently, various concentrations of carboxylic acids were added, and the cells were further incubated for 1 h. Then, 1 μL of 1 mM α-melanocyte-stimulating hormone (α-MSH) solution was added to achieve a final concentration of 1 μM, and the cells were cultured for an additional 48 h at 37 °C with 5% CO2 to stimulate melanogenesis. Afterward, the cells were digested with trypsin, collected by centrifugation at 10,000 rpm for 5 min (Andreas Hettich GmbH & Co., KG, Tuttlingen, Germany), and the supernatant was discarded. Each tube was treated with 200 μL of 1 M NaOH solution and incubated in a water bath at 60 °C for 20 min. Following incubation, the samples were vortexed to ensure homogeneity, and 200 μL of each sample was transferred to a 96-well plate. The absorbance at 405 nm (OD405) was measured using a microplate reader (Infinite 200Pro, Tecan), and the data were recorded to calculate the melanin content, with deionized water serving as the control. The reduction in melanin content was calculated with Equation (3):(3) [(OD405 of control−OD405 of sample)/OD405 of control]×100%

T1 sequence (C7FF04 1-392 limits assumed): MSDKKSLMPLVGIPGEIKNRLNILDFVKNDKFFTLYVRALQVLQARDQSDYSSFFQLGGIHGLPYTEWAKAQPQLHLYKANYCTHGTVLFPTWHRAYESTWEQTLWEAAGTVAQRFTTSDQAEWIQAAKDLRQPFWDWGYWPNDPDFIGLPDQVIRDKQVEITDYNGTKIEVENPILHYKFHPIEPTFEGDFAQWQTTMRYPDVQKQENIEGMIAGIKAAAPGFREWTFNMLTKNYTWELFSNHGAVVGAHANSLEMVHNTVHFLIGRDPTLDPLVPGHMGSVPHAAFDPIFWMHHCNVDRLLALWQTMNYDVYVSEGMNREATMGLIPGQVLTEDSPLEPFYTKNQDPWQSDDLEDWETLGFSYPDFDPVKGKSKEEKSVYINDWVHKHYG

Row | Compound | decrease of tyrosinase fluorescence intensity (tyrosinase [1]) [%] | Ki (tyrosinase [2]) [µM] | inhibition mechanism (tyrosinase [2]) | inhibition constant (KIS) for enzyme–substrate complex (tyrosinase [2]) [mM] | pH ([3]; 3 mM) | pH ([3]; 6 mM) | L-DOPA auto-oxidation inhibition rate ([4]; 0.75 mM) | IC50 [4] [µM] | viability at 24 h, 6 mM [5] [%] | inhibition at 6000 µM (B16-F10 cells) [%] | L-DOPA auto-oxidation inhibition rate ([4]; 1.5 mM)
1 | O=C(O)CC(O)C(=O)O (stereo not shown) [malic acid] | 29.0 | 606 | mixed-type inhibition | 3.066 | 4.6 | 3.5 | exceeding 80% | 380 | > 90 | 33.6 | –
2 | O=C(O)C(O)Cc1ccccc1 (stereo not shown) [3-phenyllactic acid] | 29.3 | 1570 | mixed-type inhibition | 8.526 | – | around 6 | – | 630 | > 90 | 27.2 | exceeding 80%
